The conditions of data set [1]: AZILECT; cited from earlier work.
The procedure of data set [2]: As used herein, a “glass transition temperature (Tg)” of a solid is the temperature where the solid goes from a rigid state to a flexible state. At Tg, a polymer undergoes a phase transition from a hard, glass-like state to a flexible, rubber-like state. The Tg temperature values listed herein were determined based upon half-height of the step change or “S” shape curve seen in DSC data.
Dispersions were prepared using several techniques including rotary evaporation from solution, cryogrinding dry components and lyophilization. Samples were analyzed by modulated Differential Scanning calorimetry (DSC) to determine glass transition temperatures (Tg). A slight excess of citric acid was used in most dispersions i.e. 0.7:1 mol of rasagiline: citric acid.
In the following experiment, rasagiline base was mixed with citric acid (1:1 mol:mol) and then methanol was added to the mixture. After stirring and complete dissolution of solids, the solution was evaporated under vacuum in rotary evaporator at bath temperature 60° C.

The nature of data set [3]: Modulated DSC (MDSC), glass transition temperature (Tg). The data set is classed as physicochemical. As to conditions: Table 1.

Where two headings read alike, the source gives them in different places.

Regarding `C#CCN[C@@H]1CCc2ccccc21` [Rasagiline, R(+)-N-propargyl-1-aminoindan], the absolute bioavailability entry in data set [1] is listed as “about 36%”.

As to `C#CCN[C@@H]1CCc2ccccc21.O=C(O)CC(O)(CC(=O)O)C(=O)O` [Sample 1, mono-rasagiline citrate], the Tg is approximately 17 °C in data set [2] (by DSC), “Tg = 18 °C” in data set [2] (cyclic DSC) and “Tg = 16 °C” in data set [3].

Values taken from patent US8691872B2 (Teva Pharmaceutical Industries Ltd., priority 2010, dated 2014).
